# Experimental data as given in US20070244097A1 (priority 2003, published 2007).
# Molecular target: α7 nAChR subtype (Rattus norvegicus, UniProt Q05941)
# Assay type: binding
# Conditions: read-out: KD (saturation curve, one site model)
# α7 nAChR subtype, sequence (Q05941 23-502 limits assumed): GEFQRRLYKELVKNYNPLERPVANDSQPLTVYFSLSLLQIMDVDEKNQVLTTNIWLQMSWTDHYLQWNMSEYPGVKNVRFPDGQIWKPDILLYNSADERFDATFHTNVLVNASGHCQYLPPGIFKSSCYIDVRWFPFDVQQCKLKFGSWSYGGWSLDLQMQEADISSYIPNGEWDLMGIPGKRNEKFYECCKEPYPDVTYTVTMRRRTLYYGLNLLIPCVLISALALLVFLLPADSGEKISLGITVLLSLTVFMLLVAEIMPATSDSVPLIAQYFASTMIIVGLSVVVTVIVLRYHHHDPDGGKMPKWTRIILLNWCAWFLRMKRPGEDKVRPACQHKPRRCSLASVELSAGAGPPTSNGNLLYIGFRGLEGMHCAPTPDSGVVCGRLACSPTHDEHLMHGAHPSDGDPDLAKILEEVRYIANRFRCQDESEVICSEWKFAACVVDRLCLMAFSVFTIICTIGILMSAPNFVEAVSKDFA
substance,measurement,value
^125I-α-Bungarotoxin [^125I-α-BTX],Kd,1.67 nM
